Measured values as given in patent US20030157516A1, “G protein coupled receptor” (priority 2000, published 2003).
“And” between values parts separate entries of the source, which are not always exact repeats. Equal entries are not always repeated.

Assays:
wild type CHO cells [1] = test: cAMP measurements on wild type CHO cells; format: cell-based; conditions: wild type
Description: For permanently transfected CHO cells, cAMP measurements were performed using the indirect RIA kit from NEN (Belgium).
a) Methods: Two days before the experiment the cells were seeded out in a 96 well plate at a density required for approximately 90% confluence at the day of the experiment. After removal of the growth medium, the cells were washed twice with a controlled salt solution (CSS) containing 25 mM Tris-HCl, pH 7.4, 120 mM NaCl, 5.4 mM KCl, 0.8 mM MgCl2, 1.8 mM CaCl2, 15 mM glucose and 15 mg/l phenol red, with an addition of a phosphodiesterase inhibitor IBMX (3-isobutyl-1-methylxanthine) in a concentration of 1 mM and […]. Basal cAMP levels were determined in CSS containing these additives and maximally stimulated cAMP levels were determined in the presence of 50 μM forskolin. For testing agonistic activity, the compounds were incubated with the cells for 20 minutes at 37° C. The reaction was stopped by addition of ice cold HClO4 (1N) and stored at −20° C. After thawing the mixtures were neutralized with an equivalent amount of phosphate buffered KOH, left at 4° C. during 30 minutes to allow the salts to precipitate and centrifuged at 2,000 RPM for 5 minutes at 4° C.
For the quantitative determination of the cAMP levels, a 96-well Flashplate radioimmunoassay kit from NEN was used, according to the protocol of the supplier. The sigmoid concentration response curves (duplicate points) were analyzed using the GraphPad Prism program.

[2] = target: T1, adenine binding rat receptor (Rattus norvegicus, UniProt Q7TN49); test: [3H]adenine competition binding on CHO membranes transiently transfected; conditions: transfected cells, 15 nM [3H]adenine
T1 construct: expressed in transfected cells; host or cells: CHO cells, transient, lipofectamine PLUS
T1 sequence (Q7TN49 1-304): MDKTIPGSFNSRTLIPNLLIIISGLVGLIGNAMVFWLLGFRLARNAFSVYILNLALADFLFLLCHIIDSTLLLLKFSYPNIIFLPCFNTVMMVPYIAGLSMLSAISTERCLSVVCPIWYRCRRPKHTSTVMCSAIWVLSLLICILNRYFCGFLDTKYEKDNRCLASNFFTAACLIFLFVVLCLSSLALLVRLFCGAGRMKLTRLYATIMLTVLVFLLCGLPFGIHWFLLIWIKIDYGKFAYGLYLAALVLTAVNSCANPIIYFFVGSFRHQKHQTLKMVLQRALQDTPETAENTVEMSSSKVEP
Description: (§1) The membranes were prepared as total particulate fractions. The cell lines were cultured to 906 confluency on 145 mm petri dishes and treated with 5 mM sodium butyrate, 24 hours before collection. The culturing medium was removed and the cells were washed twice with ice cold phosphate buffered saline (PBS without Ca^2+ and Mg^2+), scraped from the plates in 50 mM Tris-HCl buffer, pH 7.4, and collected by centrifugation (10 minutes at 16,000 RPM at 4° C.). The cell pellet was re-suspended in hypotonic 5 mM Tris-HCl buffer, pH 7.4, and homogenized with an Ultra Turrax homogenizer (Janker Kunkel, Germany). The homogenate was centrifuged at 18,000 RPM for 20 minutes at 4° C. The final pellet was re-suspended in 50 mM Tris-HCl buffer, pH 7.4 and stored in aliquots at −70° C. A protein determination was performed using the Bradford protein assay (Biorad, Germany) using bovine serum albumin (BSA) as standard.
(§2) A) Methods—[3H]Adenine binding experiments were performed to characterize wild type cell lines before transfection as well as transiently and permanently transfected cell lines. Membranes were thawed on ice and diluted in 50 mM HEPES buffer, pH 7.4 supplemented with 10 mM MgCl2 and 1 mM EGTA. […] Both assays were carried out in a final volume of 500 μl, using 18 μg of membrane protein for the transfected CHO cells and 30 μg of membrane protein for the wild type CHO cells for the saturation binding. For competition binding experiments, 15 and 50 μg of membrane protein was used for the transfected and wild type cells, respectively. The reaction was terminated by rapid filtration through Whatman GF/B filters using a Brandel multi-channel cell harvester (96 wells). The filters were washed three times with 3 ml ice cold 50 mM HEPES buffer, pH 7.4, transferred to liquid scintillation vials and 3 ml of scintillation fluid (Ultima Gold MV, Packard, Netherlands) was added. Samples were counted in a β-scintillation counter after at least 6 hours to permit the glass fiber filters to become uniformly translucent.

adenine binding GPCR = target: T2, adenine binding GPCR (Rattus norvegicus, UniProt Q7TN49); test: FLIPR Ca2+ transient assay, antagonism of 30 nM adenine challenge; format: cell-based; conditions: 15 minutes incubation with compound (30 μM to 30 pM), then challenge with 30 nM adenine
T2 construct: The full length reading frame was inserted into the mammalian expression vector pcDNA3; expressed in transfected cells; host or cells: HEK293 cells stably transfected with pLEC/Gqi or pLEC/Gqo
T2 sequence (Q7TN49 1-304): T1 sequence (Q7TN49 1-304)
Description: (§3) The full length reading frame was inserted into the mammalian expression vector pcDNA3 (Invitrogen, Carlsbad, Calif., U.S.A.) and the resulting expression construct was transiently transfected with the FuGENE 6 reagent (Roche Molecular Biochemicals, Mannheim, Germany) into HEK293 cells stably transfected (E. Bender, unpublished) with pLEC/Gqi or pLEC/Gqo (Molecular Devices, Sunnyvale, Calif., U.S.A.). The cells were loaded with Fluo-4 (Molecular Probes, Eugene, Oreg., U.S.A.) according to the recommendations of the supplier.
After a 15 minutes incubation at room temperature, the same cells were challenged with 30 nM adenine, to detect antagonistic properties of molecules added in the first round of superfusion.

rat adenine binding GPCR = target: T3, rat adenine binding GPCR (Rattus norvegicus, UniProt Q7TN49); test: FLIPR Ca2+ transient assay, agonism, HEK293/Gq chimera cells transiently transfected with rat adenine binding GPCR/pcDNA3; format: cell-based; set-up: The full length reading frame was inserted into the mammalian expression vector pcDNA3; expressed in transfected cells; host or cells: HEK293 cells stably transfected with pLEC/Gqi or pLEC/Gqo; conditions: for calcium transients elicited: HEK293/Gaqo cells, 3.3 μM; for agonistic effects on Ca2+ transients: concentrations ranging from 30 μM to 30 pM
T3 sequence (Q7TN49 1-304): T1 sequence (Q7TN49 1-304)
Description: This assay is based around an instrument called a FLuorescence Imaging Plate Reader ((FLIPR®), Molecular Devices Corporation). In its most common configuration, it excites and measures fluorescence emitted by fluorescein-based dyes. It uses an argon-ion laser to produce high power excitation at 488 nm of a fluorophore, a system of optics to rapidly scan the over the bottom of a 96-/384-well plate and a sensitive, cooled CCD camera to capture the emitted fluorescence. It also contains a 96-/384-well pipetting head allowing the instrument to deliver solutions of test agents into the wells of a 96-/384-well plate. The FLIPR assay is designed to measure fluorescence signals from populations of cells before, during and after addition of compounds, in real time, from all 96-/384-wells simultaneously. […] As described below, calcium transients in cells transfected with adenine binding GPCR were measured using the FLIPR assay in order to measure activation of the receptors by various substrates in order to determine the natural ligand of the receptor.
as §3, with “supplier. […]” for “supplier.”
Using the FLIPR assay as above, calcium transients were measured in both sets of cells with the transients attributable to the novel GPCR measured as the difference between the two transients. Results are illustrated in FIG. 4. […]

wild type CHO cells [3] = test: [3H]adenine competition binding on wild type CHO membranes; conditions: 15 nM [3H]adenine
Description: as §1, with “The cell lines were cultured to 906 confluency on 145 mm petri dishes and treated with 5 mM sodium butyrate, 24 hours before collection.” left out
as §2, with “Membranes” for “A) Methods—[3H]Adenine binding experiments were performed to characterize wild type cell lines before transfection as well as transiently and permanently transfected cell lines. Membranes”

[4] = target: T1, adenine binding rat receptor; test: [3H]adenine saturation binding on CHO membranes transiently transfected; conditions: transfected cells
Description: as §1, §2
Addition of Gpp-NHp blocks the high-affinity or agonist binding sites of GPCRs, so that only low-affinity sites are available.

wild type CHO cells [5] = test: [3H]adenine saturation binding on wild type CHO membranes; conditions: mean n=3
Description: as §1
A) Methods—[3H]Adenine binding experiments were performed to characterize wild type cell lines before transfection as well as transiently and permanently transfected cell lines. Membranes were thawed on ice and diluted in 50 mM HEPES buffer, pH 7.4 supplemented with 10 mM MgCl2 and 1 mM EGTA. […] Samples were counted in a β-scintillation counter after at least 6 hours to permit the glass fiber filters to become uniformly translucent. […]

HEK293 = test: Preliminary [3H]adenine binding on wild-type cells
Description: as §2
(§4) The assay conditions were identical to those for the transfected cells.

C6 glioma = test: Preliminary [3H]adenine binding on wild-type cells
Description: as §2, §4

CHO = test: Preliminary [3H]adenine binding on wild-type cells; conditions: pool 1 and pool 2
Description: as §2, §4

Cos7 = test: Preliminary [3H]adenine binding on wild-type cells
Description: as §2, §4

NIH3T3 = test: Preliminary [3H]adenine binding on wild-type cells
Description: as §2, §4

| Compound | IC50 ([2]; mean of n experiments) [nM] | IC50 ([2]; single experiments) [nM] | antagonistic effect (adenine binding GPCR) | calcium transients elicited (rat adenine binding GPCR) | agonistic effects on Ca2+ transients (rat adenine binding GPCR) | pIC50 (wild type CHO cells [3]; mean of n experiments) | pIC50 (wild type CHO cells [3]; single experiments) | also measured |
| --- | --- | --- | --- | --- | --- | --- | --- | --- |
| C=C[C@@]1(C)CC(=O)[C@]2(O)[C@@]3(C)[C@@H](O)CCC(C)(C)[C@@H]3[C@H](O)[C@H](OC(C)=O)[C@@]2(C)O1 [forskolin] | – | – | – | – | – | – | – | cAMP level with Forskolin 50 μM (wild type CHO cells [1]; 0.5% hiFCS, induction): 25 pmol/well; cAMP level with Forskolin 50 μM (wild type CHO cells [1]; 0.5% hiFCS, no induction): 26 pmol/well; cAMP level with Forskolin 50 μM (wild type CHO cells [1]; 10% hiFCS, induction): 63 pmol/well; cAMP level with Forskolin 50 μM (wild type CHO cells [1]; 10% hiFCS, no induction): 107 pmol/well |
| Nc1ncnc2nc[nH]c12 [[^3H]adenine] | – | – | – | – | – | – | – | average saturation binding levels [4]: around 19 pmol/mg; Bmax ([4]; 100 μM Gpp-NHp, mean n=3): 17341 fmoles/mg protein; Kd ([4]; 100 μM Gpp-NHp, mean n=3): 61 nM; Kd ([4]; 100 μM Gpp-NHp, single experiments): 57 nM and 72 nM and 54 nM; Bmax ([4]; No Gpp-NHp, mean n=3): 18894 fmoles/mg protein; Kd ([4]; No Gpp-NHp, mean n=3): 24 nM; Bmax ([4]; No Gpp-NHp, single experiments): 25375 fmoles/mg protein and 17569 fmoles/mg protein and 13738 fmoles/mg protein; Kd ([4]; No Gpp-NHp, single experiments): 23 nM and 25 nM; Kd (wild type CHO cells [5]; 100 μM Gpp-NHp): 16 nM; Kd (wild type CHO cells [5]; No Gpp-NHp): 26 nM; [3H]adenine binding (HEK293): 168 fmoles/mg protein; [3H]adenine binding (C6 glioma): 839 fmoles/mg protein; [3H]adenine binding (CHO): 303 fmoles/mg protein (pool 1) and 583 fmoles/mg protein (pool 2); [3H]adenine binding (Cos7): 226 fmoles/mg protein; [3H]adenine binding (NIH3T3): 642 fmoles/mg protein |
| O=c1ccn([C@@H]2O[C@H](CO)[C@@H](O)[C@H]2O)c(=O)[nH]1 [Uridine, uridine] | > 100000 | > 100000 | did not elicit antagonistic effects | could not be elicited | No further agonistic effects | <4 | <4 | – |

Second part, led by results:

| IC50 ([2]; mean of n experiments) [nM] | IC50 ([2]; single experiments) [nM] | antagonistic effect (adenine binding GPCR) | calcium transients elicited (rat adenine binding GPCR) | agonistic effects on Ca2+ transients (rat adenine binding GPCR) | Compound | pIC50 (wild type CHO cells [3]; mean of n experiments) | pIC50 (wild type CHO cells [3]; single experiments) | also measured |
| --- | --- | --- | --- | --- | --- | --- | --- | --- |
| > 100000 | > 100000 | did not elicit antagonistic effects | could not be elicited | No further agonistic effects | O=c1[nH]cnc2nc[nH]c12 [Hypoxanthine, hypoxanthine] | <4 | <4 | – |
| > 100000 | > 100000 | weak antagonistic effect | could not be elicited | No further agonistic effects | Nc1nc2nc[nH]c2c(=O)[nH]1 [Guanine, guanine] | <4 | <4 | – |
| – | – | did not elicit antagonistic effects | – | No further agonistic effects | Nc1ncnc2c1ncn2[C@@H]1O[C@H](COP(=O)(O)OP(=O)(O)O)[C@@H](O)[C@H]1O [ADP] | <4 | <4 | pIC50 ([2]; mean of n experiments): <4; pIC50 ([2]; single experiments): <4 |
